SMILES strings stand for the structures.

In the assay the target is Nanoluciferase-BRD9 fusion protein (Homo sapiens (Human), UniProt Q9H8M2). Put plainly: SYO1 BRD9 NanoLuc degradation assay. The class given is cell-based. As to conditions: Table 5B; SYO-1 cells expressing 3×FLAG-NLuc-BRD9, 6 hours; read-out: SYO1 BRD9-NanoLuc degradation IC50. In short, it runs like this: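 Degradation was read as loss of nanoluciferase signal (Nano-Glo) after 6 h compound exposure in a stable SYO-1 line carrying 3×FLAG-NLuc-BRD9 (8000 cells/well). Normalised between DMSO (high) and a 1 μM known BRD9 degrader (low).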
Sequence of Nanoluciferase-BRD9 fusion protein (Q9H8M2 whole entry, the tested form may be a part): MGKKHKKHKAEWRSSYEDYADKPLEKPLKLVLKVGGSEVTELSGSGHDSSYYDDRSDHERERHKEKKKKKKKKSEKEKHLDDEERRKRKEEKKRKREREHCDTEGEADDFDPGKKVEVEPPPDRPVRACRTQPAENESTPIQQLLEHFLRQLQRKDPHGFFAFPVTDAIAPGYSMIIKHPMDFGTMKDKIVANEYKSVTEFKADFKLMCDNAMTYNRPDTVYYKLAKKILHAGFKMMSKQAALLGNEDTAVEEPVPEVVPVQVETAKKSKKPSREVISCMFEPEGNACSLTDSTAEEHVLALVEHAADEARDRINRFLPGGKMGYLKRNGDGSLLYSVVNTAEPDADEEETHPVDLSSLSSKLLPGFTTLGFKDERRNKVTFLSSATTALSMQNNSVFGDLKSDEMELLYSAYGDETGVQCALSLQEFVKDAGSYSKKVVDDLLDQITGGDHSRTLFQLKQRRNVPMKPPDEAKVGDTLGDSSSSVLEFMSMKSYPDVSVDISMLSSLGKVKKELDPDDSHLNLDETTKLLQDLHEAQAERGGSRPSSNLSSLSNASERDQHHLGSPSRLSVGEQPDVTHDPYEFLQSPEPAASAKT
Turning to `COc1cc(-c2cn(C)c(=O)c3cnccc23)cc(OC)c1CN1CCC(n2cc(CN3CC(Oc4ccc5c(c4)C(=O)N(C4CCC(=O)NC4=O)C5=O)C3)nn2)CC1` (centres unmarked) [Compound D280], the DC50 is less than 10 nM.

In the case of `COc1cc(-c2cn(C)c(=O)c3cnccc23)cc(OC)c1CN1CCC(n2cc(COC3CCN(c4ccc5c(c4)C(=O)N(C4CCC(=O)NC4=O)C5=O)CC3)nn2)CC1` (centres unmarked) [Compound D281], the DC50 was in the range of 10 to 100 nM.

On to `COc1cc(-c2cn(C)c(=O)c3cnccc23)cc(OC)c1CN(C)CCCn1cc(COc2ccc3c(c2)C(=O)N(C2CCC(=O)NC2=O)C3=O)nn1` (centres unmarked) [Compound D282], for which the DC50 lay in the range of 100 to 1000 nM.

For the molecule `COc1cc(-c2cn(C)c(=O)c3cnccc23)cc(OC)c1CN(C)CCCn1cc(CCOc2ccc3c(c2)C(=O)N(C2CCC(=O)NC2=O)C3=O)nn1` (centres unmarked) [Compound D283], the DC50 was in the range of 100 to 1000 nM.

On to `COc1cc(-c2cn(C)c(=O)c3cnccc23)cc(OC)c1CN(C)CCCn1cc(COCCOc2ccc3c(c2)C(=O)N(C2CCC(=O)NC2=O)C3=O)nn1` (centres unmarked) [Compound D284], for which the DC50 was in the range of 10 to 100 nM.

As to `COc1cc(-c2cn(C)c(=O)c3cnccc23)cc(OC)c1CN(C)CCCn1cc(CN2CC(Oc3ccc4c(c3)C(=O)N(C3CCC(=O)NC3=O)C4=O)C2)nn1` (centres unmarked) [Compound D285], the DC50 was 100 to 1000 nM.

In the case of `COc1cc(-c2cn(C)c(=O)c3cnccc23)cc(OC)c1CN(C)CCCn1cc(COC2CN(c3ccc4c(c3)C(=O)N(C3CCC(=O)NC3=O)C4=O)C2)nn1` (centres unmarked) [Compound D286], the DC50 is 10 to 100 nM.

In the case of `COc1cc(-c2cn(C)c(=O)c3cnccc23)cc(OC)c1CN(C)CCCn1cc(COC2CCN(c3ccc4c(c3)C(=O)N(C3CCC(=O)NC3=O)C4=O)CC2)nn1` (centres unmarked) [Compound D287], the DC50 was less than 10 nM.

For `COc1cc(-c2cn(C)c(=O)c3cnccc23)cc(OC)c1CN(C)CCOCCn1cc(COc2ccc3c(c2)C(=O)N(C2CCC(=O)NC2=O)C3=O)nn1` (centres unmarked) [Compound D288], the DC50 was less than 10 nM.

For the molecule `COc1cc(-c2cn(C)c(=O)c3cnccc23)cc(OC)c1CN1CCC(n2cc(COc3ccc4c(c3)C(=O)N(C3CCC(=O)NC3=O)C4=O)nn2)CC1` (centres unmarked) [Compound D289], the DC50 was less than 10 nM.

Regarding `COc1cc(-c2cn(C)c(=O)c3cnccc23)cc(OC)c1CN1CCC(n2cc(COCCOc3ccc4c(c3)C(=O)N(C3CCC(=O)NC3=O)C4=O)nn2)CC1` (centres unmarked) [Compound D290], the DC50 is less than 10 nM.

As to `COc1cc(-c2cn(C)c(=O)c3cnccc23)cc(OC)c1CN1CCC(n2cc(COC3CN(c4ccc5c(c4)C(=O)N(C4CCC(=O)NC4=O)C5=O)C3)nn2)CC1` (centres unmarked) [Compound D291], the DC50 was less than 10 nM.

Consider `COc1cc(-c2cn(C)c(=O)c3cnccc23)cc(OC)c1CN(C)CCOCCn1cc(CCOc2ccc3c(c2)C(=O)N(C2CCC(=O)NC2=O)C3=O)nn1` (centres unmarked) [Compound D292], for which the DC50 was 100 to 1000 nM.

For the molecule `COc1cc(-c2cn(C)c(=O)c3cnccc23)cc(OC)c1CN(C)CCOCCn1cc(COCCOc2ccc3c(c2)C(=O)N(C2CCC(=O)NC2=O)C3=O)nn1` (centres unmarked) [Compound D293], the DC50 was in the range of 10 to 100 nM.

As for `COc1cc(-c2cn(C)c(=O)c3cnccc23)cc(OC)c1CN(C)CCOCCn1cc(CN2CC(Oc3ccc4c(c3)C(=O)N(C3CCC(=O)NC3=O)C4=O)C2)nn1` (centres unmarked) [Compound D294], the DC50 is 100 to 1000 nM.

As for `COc1cc(-c2cn(C)c(=O)c3cnccc23)cc(OC)c1CN(C)CCOCCn1cc(COC2CN(c3ccc4c(c3)C(=O)N(C3CCC(=O)NC3=O)C4=O)C2)nn1` (centres unmarked) [Compound D295], the DC50 lay within 100 to 1000 nM.

In the case of `COc1cc(-c2cn(C)c(=O)c3cnccc23)cc(OC)c1CN1CC(n2cc(COc3ccc4c(c3)C(=O)N(C3CCC(=O)NC3=O)C4=O)nn2)C1` (centres unmarked) [Compound D297], the DC50 is less than 10 nM.

With `COc1cc(-c2cn(C)c(=O)c3cnccc23)cc(OC)c1CN1CC(n2cc(CCOc3ccc4c(c3)C(=O)N(C3CCC(=O)NC3=O)C4=O)nn2)C1` (centres unmarked) [Compound D298], the DC50 is less than 10 nM.

In the case of `COc1cc(-c2cn(C)c(=O)c3cnccc23)cc(OC)c1CN1CC(n2cc(COCCOc3ccc4c(c3)C(=O)N(C3CCC(=O)NC3=O)C4=O)nn2)C1` (centres unmarked) [Compound D299], the DC50 is less than 10 nM.

In the case of `COc1cc(-c2cn(C)c(=O)c3cnccc23)cc(OC)c1CN1CC(n2cc(CN3CC(Oc4ccc5c(c4)C(=O)N(C4CCC(=O)NC4=O)C5=O)C3)nn2)C1` (centres unmarked) [Compound D300], the DC50 was less than 10 nM.

In the case of `COc1cc(-c2cn(C)c(=O)c3cnccc23)cc(OC)c1CN1CC(n2cc(COC3CN(c4ccc5c(c4)C(=O)N(C4CCC(=O)NC4=O)C5=O)C3)nn2)C1` (centres unmarked) [Compound D301], the DC50 is less than 10 nM.

As for `COc1cc(-c2cn(C)c(=O)c3cnccc23)cc(OC)c1CN1CC(n2cc(COC3CCN(c4ccc5c(c4)C(=O)N(C4CCC(=O)NC4=O)C5=O)CC3)nn2)C1` (centres unmarked) [Compound D302], the DC50 was less than 10 nM.

As to `COc1cc(-c2cn(C)c(=O)c3cnccc23)cc(OC)c1Cn1cc(COCCOc2ccc3c(c2)C(=O)N(C2CCC(=O)NC2=O)C3=O)nn1` (centres unmarked) [Compound D303], the DC50 lay in the range of 10 to 100 nM.

As for `COc1cc(-c2cn(C)c(=O)c3cnccc23)cc(OC)c1CN1CCC(CN2CCC3(CC2)CC(Oc2ccc4c(c2)C(=O)N(C2CCC(=O)NC2=O)C4=O)C3)CC1` (centres unmarked) [Compound D304], the DC50 was less than 10 nM.

On to `COc1cc(-c2cn(C)c(=O)c3cnccc23)cc(OC)c1CN1CC(CCN2CCC3(CC2)CC(Oc2ccc4c(c2)C(=O)N(C2CCC(=O)NC2=O)C4=O)C3)C1` (centres unmarked) [Compound D305], for which the DC50 is 100 to 1000 nM.

For the molecule `COc1cc(-c2cn(C)c(=O)c3cnccc23)cc(OC)c1CN1CC2(CCN(CC#Cc3ccc4c(c3)C(=O)N(C3CCC(=O)NC3=O)C4=O)C2)C1` (centres unmarked) [Compound D306], the DC50 is less than 10 nM.

As to `COc1cc(-c2cn(C)c(=O)c3cnccc23)cc(OC)c1CN1CC2(CCN(CC#Cc3ccc4c(c3)C(=O)N(C3CCC(=O)NC3=O)C4=O)CC2)C1` (centres unmarked) [Compound D307], the DC50 was less than 10 nM.

For `COc1cc(-c2cn(C)c(=O)c3cnccc23)cc(OC)c1CN1CCC2(CC1)CCN(CC#Cc1ccc3c(c1)C(=O)N(C1CCC(=O)NC1=O)C3=O)C2` (centres unmarked) [Compound D308], the DC50 was less than 10 nM.

As to `COc1cc(-c2cn(C)c(=O)c3cnccc23)cc(OC)c1CN1CC2(CN(CC#Cc3ccc4c(c3)C(=O)N(C3CCC(=O)NC3=O)C4=O)C2)C1` (centres unmarked) [Compound D309], the DC50 is 10 to 100 nM.

Consider `COc1cc(-c2cn(C)c(=O)c3cnccc23)cc(OC)c1CN1CCC2C(C1)CN2CCCC#Cc1ccc2c(c1)C(=O)N(C1CCC(=O)NC1=O)C2=O` (centres unmarked) [Compound D310], for which the DC50 is less than 10 nM.

In the case of `COc1cc(-c2cn(C)c(=O)c3cnccc23)cc(OC)c1CN1CC2(CCN(C(=O)CC#Cc3ccc4c(c3)C(=O)N(C3CCC(=O)NC3=O)C4=O)C2)C1` (centres unmarked) [Compound D311], the DC50 was in the range of 10 to 100 nM.

Take `COc1cc(-c2cn(C)c(=O)c3cnccc23)cc(OC)c1CN1CC2(CCN(C(=O)CC#Cc3ccc4c(c3)C(=O)N(C3CCC(=O)NC3=O)C4=O)CC2)C1` (centres unmarked) [Compound D312]: the DC50 is less than 10 nM.

As for `COc1cc(-c2cn(C)c(=O)c3cnccc23)cc(OC)c1CN1CCC2(CC1)CCN(C(=O)CC#Cc1ccc3c(c1)C(=O)N(C1CCC(=O)NC1=O)C3=O)C2` (centres unmarked) [Compound D313], the DC50 is less than 10 nM.

For `COc1cc(-c2cn(C)c(=O)c3cnccc23)cc(OC)c1CN1CCC2(C1)CN(C(=O)CC#Cc1ccc3c(c1)C(=O)N(C1CCC(=O)NC1=O)C3=O)C2` (centres unmarked) [Compound D314], the DC50 lay in the range of 10 to 100 nM.

As for `COc1cc(-c2cn(C)c(=O)c3cnccc23)cc(OC)c1CN1CCC2C(C1)CN2C(=O)CC#Cc1ccc2c(c1)C(=O)N(C1CCC(=O)NC1=O)C2=O` (centres unmarked) [Compound D315], the DC50 was less than 10 nM.

Turning to `COc1cc(-c2cn(C)c(=O)c3cnccc23)cc(OC)c1CN1CCN(C(=O)CC#Cc2ccc3c(c2)C(=O)N(C2CCC(=O)NC2=O)C3=O)CC1` (centres unmarked) [Compound D316], the DC50 was less than 10 nM.

Consider `COc1cc(-c2cn(C)c(=O)c3cnccc23)cc(OC)c1CN1CC2(C1)CN(C(=O)CC#Cc1ccc3c(c1)C(=O)N(C1CCC(=O)NC1=O)C3=O)C2` (centres unmarked) [Compound D317], for which the DC50 was in the range of 10 to 100 nM.

Regarding `COc1cc(-c2cn(C)c(=O)c3cnccc23)cc(OC)c1CN1CCC2(CC1)CN(C(=O)CC#Cc1ccc3c(c1)C(=O)N(C1CCC(=O)NC1=O)C3=O)C2` (centres unmarked) [Compound D318], the DC50 is less than 10 nM.

Consider `COc1cc(-c2cn(C)c(=O)c3cnccc23)cc(OC)c1CN1CCC(n2cc([C@@H](C)Oc3ccc4c(c3)C(=O)N(C3CCC(=O)NC3=O)C4=O)nn2)CC1` (some centres unmarked) [Compound D319], for which the DC50 was less than 10 nM.

With `COc1cc(-c2cn(C)c(=O)c3cnccc23)cc(OC)c1CN1CCC(n2cc([C@H](C)Oc3ccc4c(c3)C(=O)N(C3CCC(=O)NC3=O)C4=O)nn2)CC1` (some centres unmarked) [Compound D320], the DC50 was less than 10 nM.

Regarding `COc1cc(-c2cn(C)c(=O)c3cnccc23)cc(OC)c1CN1CCC(c2nc(COc3ccc4c(c3)C(=O)N(C3CCC(=O)NC3=O)C4=O)cs2)CC1` (centres unmarked) [Compound D321], the DC50 was less than 10 nM.

As for `COc1cc(-c2cn(C)c(=O)c3cnccc23)cc(OC)c1CN1CCC(c2cc(COc3ccc4c(c3)C(=O)N(C3CCC(=O)NC3=O)C4=O)on2)CC1` (centres unmarked) [Compound D322], the DC50 was less than 10 nM.

Regarding `COc1cc(-c2cn(C)c(=O)c3cnccc23)cc(OC)c1CN1CCC(n2ccc(COc3ccc4c(c3)C(=O)N(C3CCC(=O)NC3=O)C4=O)n2)CC1` (centres unmarked) [Compound D323], the DC50 was less than 10 nM.

`COc1cc(-c2cn(C)c(=O)c3cnccc23)cc(OC)c1CN1CCC(n2cc(COc3ccc4c(c3)C(=O)N(C3CCC(=O)NC3=O)C4=O)cn2)CC1` (centres unmarked) [Compound D324]: the DC50 was less than 10 nM.

With `COc1cc(-c2cn(C)c(=O)c3cnccc23)cc(OC)c1CN1CCC(c2nc(COc3ccc4c(c3)C(=O)N(C3CCC(=O)NC3=O)C4=O)co2)CC1` (centres unmarked) [Compound D325], the DC50 is less than 10 nM.

In the case of `COc1cc(-c2cn(C)c(=O)c3cnccc23)cc(OC)c1CN1CCC(c2ncc(COc3ccc4c(c3)C(=O)N(C3CCC(=O)NC3=O)C4=O)o2)CC1` (centres unmarked) [Compound D326], the DC50 was less than 10 nM.

As to `COc1cc(-c2cn(C)c(=O)c3cnccc23)cc(OC)c1CN1CC(N2CCN(c3ccc4c(c3)C(=O)N(C3CCC(=O)NC3=O)C4=O)CC2)C1` (centres unmarked) [Compound D327], the DC50 is less than 10 nM.

(Values after patent publication US11414416B1, “Compounds and uses thereof” (Foghorn Therapeutics Inc., priority 2019, dated 2022).)
